{"source": "patent EP0309421A2", "about": "“O-alkanoyl derivatives of 3-amino-2-hydroxypropanesulfonic acid having anticonvulsivant activity and pharmaceutical compositions containing same for the therapeutical treatment of epilepsy” (SIGMA TAU Industrie Farmaceutiche Riunite S.p.A., priority 1987, dated 1989)", "key": {"[1]": {"system": "strychnine-induced convulsions", "test": "Anticonvulsivant test, strychnine-induced convulsions", "assay_type": "in vivo, male albino swiss (Charles River) mice", "description": "(§1) Anticonvulsivant tests were carried out using cardiazol, strychnine and bicuculline at doses of 100 mg/10 ml/kg i.p., 0.73 mg/10 ml/kg s.c. and 2.38 mg/10 ml/kg s.c., respectively, chosen in such a way as to provoke death in 50% of the control animals.\n(§2) The tests were carried out in male albino swiss (Charles River) mice weighing 22-24 g. The compound under examination, dissolved in water, was i.p. administered 30 minutes before the convulsivant agent administration.\n(§3) As reference substance, 3-APS (200-400-800 mg/10 ml/kg i.p.) was used."}, "[2]": {"system": "cardiazol-induced convulsions", "test": "Anticonvulsivant test, cardiazol-induced convulsions", "assay_type": "in vivo, male albino swiss (Charles River) mice", "description": "as §1, §2, §3"}, "[3]": {"system": "bicuculline-induced convulsions", "test": "Anticonvulsivant test, bicuculline-induced convulsions", "assay_type": "in vivo, male albino swiss (Charles River) mice", "description": "as §1, §2, §3"}, "[4]": {"test": "Stability of the solid product versus pH (deacylation)", "assay_type": "physicochemical", "conditions": "above it deacylation of the compound takes place", "description": "After it had been cooled to room temperature the mixtured was filtered and the filtrate added dropwise to an Erlenmeyer flask containing about 700 milliliters of ethyl ether. A white precipitate formed which was again dissolved in methanol, filtered and re-precipitated with ether. Upon drying 7.3 g of a white, hygroscopic solid product, stable at pH <6.3 were obtained; above this […] deacylation of the compound takes place. • Elementary analysis: [formula] • NMR corresponding"}, "[5]": {"system": "FeCl3-induced epilepsy", "test": "Antiepileptic activity test (FeCl3-induced epilepsy model)", "assay_type": "in vivo, Male albino Wistar rats", "conditions": "500, 250 and 125 mg/kg i.v. ninety minutes following FeCl3 injection; Mann-Whitney's \"U\" test, P<0.05", "description": "Male albino Wistar rats weighing 250-300 g were used. The animals, anaesthetized with Nembutal Na (30 mg/kg e.p.), were stereotactically injected in their left ventral hippocampus one microliter of 0.55 M FeC13 solution (AP =-3.2; L=5.0; H=5.5 Pellegrino and Cushman, 1971). Ten minutes following injection, recording electrodes were implanted: in both ventral hippocampi, two millimeters below the FeC13 injection site (bipolars), bilaterally on the frontoparietal cortex (monopolars). […] The epilepsy degree was assessed by calculating for each animal the number and duration in seconds of the seizures at 5-minute intervals during the whole recording span both in the hippocampus where the injection had been performed and in the contralateral cortex. Moreover, an \"index of epileptization\" was calculated as the mean product of seizure number times the duration of the seizures in each time interval. […]\nThe results thus obtained show the antiepileptic activity of the compound assessed by examining the whole phenomenon as it evolves in time via the measure (carried out with the trapezoidal rule) of the area under the curve wherein the average number of seizures and their duration is plotted versus time."}, "[6]": {"system": "male and female Sprague Dawley rats", "test": "Toxicity test, oral administration for 15 consecutive days", "assay_type": "in vivo", "conditions": "150-450-1350 mg/10 ml/kg for 15 consecutive days", "description": "The toxicity tests were carried out on male and female Sprague Dawley rats which were orally administered ST549 at the doses of 150-450-1350 mg/10 ml/kg for 15 consecutive days; the control animals were administered the same volume of vehicle as the test animals."}, "[7]": {"system": "auricular electroshock", "test": "Auricular electroshock (maximal electroshock)", "assay_type": "in vivo, Male albino Swiss mice", "conditions": "14 animals, control 6/14", "description": "Male albino Swiss mice weighing 22-24 g were used in this test. The electroshock conditions were the following: • shock duration: 3 seconds; frequence: 100; pulse amplitude: 0.6 milliseconds, current intensity: 40 milliamperes. • 400 and 800 mg/10 ml/kg of the compound under examination were administered via the intraperitoneal route 30 minutes before the electroshock.\nThe tests results which illustrate the number of animals preserved from death provoked by maximal electroshock are shown in the following Table 3."}, "[8]": {"system": "male albino swiss mice", "test": "Tolerability test, intravenous", "assay_type": "in vivo", "conditions": "1.4 g/kg intravenously, in sterile saline at neutral pH", "description": "The tolerability test was carried out on male albino swiss mice weighing 22-24 g."}, "[9]": {"conditions": "Strychnine, 3-APS 400 mg/kg i.p."}, "[10]": {"conditions": "Strychnine, 3-APS 800 mg/kg i.p."}, "[11]": {"conditions": "doses of 200,400 and 800 mg/10 ml/kg i.p."}, "[12]": {"conditions": "Cardiazol, 3-APS 400 mg/kg i.p."}, "[13]": {"conditions": "Cardiazol, 3-APS 800 mg/kg i.p."}, "[14]": {"conditions": "Bicuculline, 3-APS 800 mg/kg i.p."}, "[15]": {"conditions": "Strychnine, ST 549 i.p., equimolar to 400 mg/kg 3APS"}, "[16]": {"conditions": "lower dose (equimolar to 200 mg/10 ml/kg of 3-APS)"}, "[17]": {"conditions": "Cardiazol, ST 549 i.p., equimolar to 400 mg/kg 3APS"}, "[18]": {"conditions": "Bicuculline, ST 549 i.p., equimolar to 400 mg/kg 3APS"}}, "note": "Marks after values point to notes of the source that are not given here.", "data": [{"smiles": "NCCCS(=O)(=O)O", "note": "[3-APS, 3-aminopropanesulfonic acid]", "values": [{"measurement": "% Conv.", "setting": "[1]; Strychnine 0.73 mg/10 ml/kg s.c., 3-APS 200 mg/kg i.p. 30 min before, 10 animals", "value": 100, "unit": "%"}, {"measurement": "% Death rate", "setting": "[1]; Strychnine, 3-APS 200 mg/kg i.p.", "value": 90, "unit": "%"}, {"measurement": "% Conv.", "setting": "[1]; [9]", "value": 100, "unit": "%"}, {"measurement": "% Death rate", "setting": "[1]; [9]", "value": 100, "unit": "%"}, {"measurement": "% Conv.", "setting": "[1]; [10]", "value": 100, "unit": "%"}, {"measurement": "% Death rate", "setting": "[1]; [10]", "value": 90, "unit": "%"}, {"measurement": "preservation from strychnine-induced death", "setting": "[1]; [11]", "value": "did not preserve animals"}, {"measurement": "% Conv.", "setting": "[2]; Cardiazol 100 mg/10 ml/kg i.p., 3-APS 200 mg/kg i.p. 30 min before, 10 animals", "value": 100, "unit": "%"}, {"measurement": "% Death rate", "setting": "[2]; Cardiazol, 3-APS 200 mg/kg i.p.", "value": 50, "unit": "%"}, {"measurement": "% Conv.", "setting": "[2]; [12]", "value": 100, "unit": "%"}, {"measurement": "% Death rate", "setting": "[2]; [12]", "value": 90, "unit": "%"}, {"measurement": "% Conv.", "setting": "[2]; [13]", "value": 100, "unit": "%"}, {"measurement": "% Death rate", "setting": "[2]; [13]", "value": 60, "unit": "%"}, {"measurement": "preservation from cardiazole-induced death", "setting": "[2]; [11]", "value": "did not preserve animals"}, {"measurement": "latency time of bicuculline-induced death", "setting": "[3]; 400 mg/10 ml/kg i.p.", "value": "significantly increased"}, {"measurement": "latency time of the bicuculline-induced first convulsion", "setting": "[3]; 800 mg/kg i.p.", "value": "significantly increased"}, {"measurement": "% Conv.", "setting": "[3]; Bicuculline 2.38 mg/10 ml/kg s.c., 3-APS 200 mg/kg i.p. 30 min before, 10 animals", "value": 100, "unit": "%"}, {"measurement": "% Death rate", "setting": "[3]; Bicuculline, 3-APS 200 mg/kg i.p.", "value": 100, "unit": "%"}, {"measurement": "% Death rate", "setting": "[3]; Bicuculline, 3-APS 400 mg/kg i.p.", "value": 75, "unit": "%"}, {"measurement": "% Conv.", "setting": "[3]; Bicuculline, 3-APS 400 mg/kg i.p., 8 animals per group", "value": "100* %"}, {"measurement": "% Conv.", "setting": "[3]; [14]", "value": 70, "unit": "%"}, {"measurement": "% Death rate", "setting": "[3]; [14]", "value": 40, "unit": "%"}, {"measurement": "preservation from bicuculline-induced death", "setting": "[3]; [11]", "value": "did not preserve animals"}]}, {"smiles": "CCCC(=O)OC(CN)CS(=O)(=O)O.Cl", "note": "(stereo not shown) [ST 477, 3-amino-2-butanoyloxypropanesulfonic acid hydrochloride]", "values": [{"measurement": "stable at pH", "setting": "[4]", "value": "< 6.3"}]}, {"smiles": "CC(=O)OC(CN)CS(=O)(=O)O", "note": "(stereo not shown) [ST 549, 3-amino-2-acetyloxy propanesulfonic acid]", "values": [{"measurement": "area under the curve of average number of seizures and their duration versus time, compared with controls", "setting": "[5]", "value": "statistically significant difference"}, {"measurement": "general health or behaviour of the animals", "setting": "[6]", "value": "did not affect"}, {"measurement": "Autopsy, main organs", "setting": "[6]; at the end of the test", "value": "did not reveal either alterations or lesions to the main organs"}, {"measurement": "blood and urine parameters", "setting": "[6]; with respect to the controls", "value": "unchanged"}, {"measurement": "% Death rate", "setting": "[1]; Strychnine, ST 549 i.p., equimolar to 200 mg/kg 3APS", "value": 90, "unit": "%"}, {"measurement": "% Conv.", "setting": "[1]; Strychnine, ST 549 i.p., equimolar to 200 mg/kg 3APS, 10 animals", "value": 100, "unit": "%"}, {"measurement": "% Conv.", "setting": "[1]; [15]", "value": 100, "unit": "%"}, {"measurement": "% Death rate", "setting": "[1]; [15]", "value": 90, "unit": "%"}, {"measurement": "latency time of strychnine-induced death", "setting": "[1]; [16]", "value": "significantly increased"}, {"measurement": "latency time of strychnine-induced first convulsion", "setting": "[1]; [16]", "value": "significantly increased"}, {"measurement": "death rate", "setting": "[7]; 400 mg/kg i.p. 30 minutes before the electroshock", "value": "3/14"}, {"measurement": "death rate", "setting": "[7]; 800 mg/kg i.p. 30 minutes before the electroshock", "value": "3/14"}, {"measurement": "% Conv.", "setting": "[2]; Cardiazol, ST 549 i.p., dose equimolar to 200 mg/kg 3APS, 10 animals", "value": 100, "unit": "%"}, {"measurement": "% Death rate", "setting": "[2]; Cardiazol, ST 549 i.p., equimolar to 200 mg/kg 3APS", "value": 50, "unit": "%"}, {"measurement": "% Conv.", "setting": "[2]; [17]", "value": 90, "unit": "%"}, {"measurement": "% Death rate", "setting": "[2]; [17]", "value": 0, "unit": "%"}, {"measurement": "animals preserved from cardiazol-induced death", "setting": "[2]; dose equimolar to 400 mg/10 ml/kg i.p. of 3-APS", "value": 100, "unit": "%"}, {"measurement": "effect on the relevant parameters (cardiazol)", "setting": "[2]; [16]", "value": "did not affect the relevant parameters"}, {"measurement": "tolerability", "setting": "[8]", "value": "well tolerated"}, {"measurement": "% Death rate", "setting": "[3]; Bicuculline, ST 549 i.p., equimolar to 200 mg/kg 3APS", "value": 60, "unit": "%"}, {"measurement": "% Conv.", "setting": "[3]; Bicuculline, ST 549 i.p., equimolar to 200 mg/kg 3APS, 10 animals", "value": 70, "unit": "%"}, {"measurement": "% Conv.", "setting": "[3]; [18]", "value": 60, "unit": "%"}, {"measurement": "% Death rate", "setting": "[3]; [18]", "value": 60, "unit": "%"}, {"measurement": "decrease of bicuculline-induced death rate", "setting": "[3]; doses equimolar to 400 and 200 mg/10 ml/kg i.p. of 3-APS", "value": 30, "unit": "%"}, {"measurement": "animals preserved from convulsions (bicuculline)", "setting": "[3]; doses equimolar to 400 and 200 mg/10 ml/kg i.p. of 3-APS, printed as \"the same percentage\"", "value": 30, "unit": "%"}]}]}
